Reference: patent US20160355530A1, “HEPATITIS C INHIBITORS AND USES THEREOF” (AbbVie Inc., priority 2010, published 2016)
Read-outs that look alike come from different tables or passages of the source.

Tests used:
[1] = tested on: chimeric replicon with genotype 4a NS5B; test: microbe, parasite or virus in culture; type: cell-based, HCV genotype 4a; details: Hepatitis C virus, read-out: 4a chimera 5% FBS EC50
[2] = tested on: chimeric replicon with genotype 2b NS5B; test: microbe, parasite or virus in culture; type: cell-based, HCV genotype 2b; details: Hepatitis C virus, read-out: 2b chimera 5% FBS EC50
[3] = target: T1, HCV NS5B polymerase 1a-H77 (Hepatitis C virus genotype 1a, UniProt P27958); test: biochemical; parameters: species or system HCV genotype 1a; details: enzyme, strain 1a H77; read-out: HCV Polymerase Strain 1a H77 IC50
T1 construct: six-histidine tag; made in house; host or cells: E. coli
T1 sequence (P27958 2421-2990): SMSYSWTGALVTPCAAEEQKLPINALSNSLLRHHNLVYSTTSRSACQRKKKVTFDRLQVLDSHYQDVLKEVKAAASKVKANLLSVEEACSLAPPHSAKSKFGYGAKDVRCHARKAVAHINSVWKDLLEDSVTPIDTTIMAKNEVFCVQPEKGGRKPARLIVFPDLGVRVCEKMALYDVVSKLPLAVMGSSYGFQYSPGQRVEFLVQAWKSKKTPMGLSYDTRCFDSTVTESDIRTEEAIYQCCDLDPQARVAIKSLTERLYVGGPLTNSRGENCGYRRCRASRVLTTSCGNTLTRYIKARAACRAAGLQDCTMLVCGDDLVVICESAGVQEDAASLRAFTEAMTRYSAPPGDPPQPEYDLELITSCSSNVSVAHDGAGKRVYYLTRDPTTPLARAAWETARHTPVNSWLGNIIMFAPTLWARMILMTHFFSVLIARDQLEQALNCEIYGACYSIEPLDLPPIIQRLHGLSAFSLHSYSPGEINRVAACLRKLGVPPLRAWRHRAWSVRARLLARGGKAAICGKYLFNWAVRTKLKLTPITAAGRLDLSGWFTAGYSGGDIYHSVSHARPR
Outline: (§1)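 Recombinant NS5B (residues 1–570, His-tagged, E. coli-expressed) copied 5 nM of a 2.1 kb HCV 1b negative-strand 3′-end RNA template with 20 μM CTP, 20 μM ATP and 0.284 μM [3H]UTP for 3 h at 30 °C. Spermine-precipitated RNA was filter-captured and counted, and IC50 was fitted by nonlinear regression.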

[4] = target: T2, HCV NS5B polymerase 1a-H77-C316Y (Hepatitis C virus genotype 1a, UniProt P27958, C2736Y); test: biochemical; parameters: species or system HCV genotype 1a
T2 construct: six-histidine tag; made in house; host or cells: E. coli
T2 sequence (P27958 2421-2990 C2736Y): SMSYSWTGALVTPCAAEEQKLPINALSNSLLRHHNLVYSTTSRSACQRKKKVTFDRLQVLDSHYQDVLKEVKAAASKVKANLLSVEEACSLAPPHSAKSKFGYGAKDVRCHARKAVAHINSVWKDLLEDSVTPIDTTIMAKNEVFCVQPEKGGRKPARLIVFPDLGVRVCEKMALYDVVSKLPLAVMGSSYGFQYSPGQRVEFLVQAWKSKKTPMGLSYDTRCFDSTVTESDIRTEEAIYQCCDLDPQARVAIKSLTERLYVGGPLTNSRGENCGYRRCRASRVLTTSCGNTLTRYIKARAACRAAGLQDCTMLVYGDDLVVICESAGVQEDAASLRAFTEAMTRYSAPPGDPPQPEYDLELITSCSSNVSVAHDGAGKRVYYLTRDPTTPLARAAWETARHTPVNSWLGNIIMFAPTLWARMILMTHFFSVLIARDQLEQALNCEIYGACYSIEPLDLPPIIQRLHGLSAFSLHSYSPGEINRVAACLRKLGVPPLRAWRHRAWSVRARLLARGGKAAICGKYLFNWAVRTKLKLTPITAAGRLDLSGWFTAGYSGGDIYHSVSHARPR
Outline: as §1

[5] = tested on: HCV NS5B polymerase 1a-H77-C316Y; test: biochemical; parameters: species or system HCV genotype 1a; details: ratio of enzyme IC50s, 1a H77-C316Y / 1a H77
Outline: as §1

[6] = tested on: chimeric replicon with genotype 3a NS5B; test: microbe, parasite or virus in culture; type: cell-based, HCV genotype 3a; details: Hepatitis C virus, read-out: 3a chimera 5% FBS EC50
[7] = target: T3, HCV NS5B polymerase 1b BK strain (Hepatitis C virus genotype 1b, UniProt P26663); test: HCV NS5B polymerase enzymatic inhibition assay, strain 1b BK; type: biochemical; details: enzyme, strain 1b BK; read-out: HCV Polymerase Strain 1b BK IC50
T3 construct: six-histidine tag; made in house; host or cells: E. coli
T3 sequence (P26663 2420-2989): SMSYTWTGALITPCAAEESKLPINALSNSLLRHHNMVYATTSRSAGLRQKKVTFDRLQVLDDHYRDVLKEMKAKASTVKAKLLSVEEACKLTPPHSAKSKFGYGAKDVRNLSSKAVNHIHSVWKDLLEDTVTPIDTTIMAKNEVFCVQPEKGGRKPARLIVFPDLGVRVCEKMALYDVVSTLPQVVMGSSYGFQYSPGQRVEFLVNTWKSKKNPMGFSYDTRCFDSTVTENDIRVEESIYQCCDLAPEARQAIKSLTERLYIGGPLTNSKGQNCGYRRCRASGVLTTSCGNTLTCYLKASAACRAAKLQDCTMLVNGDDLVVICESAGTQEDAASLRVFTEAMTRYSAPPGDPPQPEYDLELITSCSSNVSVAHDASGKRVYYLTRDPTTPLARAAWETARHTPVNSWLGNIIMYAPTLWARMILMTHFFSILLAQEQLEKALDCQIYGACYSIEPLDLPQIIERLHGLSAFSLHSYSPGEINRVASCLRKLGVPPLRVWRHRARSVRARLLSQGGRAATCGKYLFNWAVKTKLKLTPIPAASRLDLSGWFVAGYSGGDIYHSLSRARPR
Outline: as §1

[8] = tested on: chimeric replicon with 2a-J6CF-derived NS5B; test: microbe, parasite or virus in culture; type: cell-based, HCV genotype 2a; details: Hepatitis C virus, read-out: 2a chimera 5% FBS EC50
[9] = tested on: HCV 1a-H77 subgenomic replicon; test: microbe, parasite or virus in culture; type: cell-based, HCV genotype 1a; details: Hepatitis C virus, stable replicon
[10] = tested on: HCV 1b-BB7 subgenomic replicon; test: microbe, parasite or virus in culture; type: cell-based, HCV genotype 1b; details: Hepatitis C virus, stable replicon
[11] = 5% FBS, absence of human plasma, read-out: Stable Replicon 1a H77 5% FBS EC50
[12] = strain 1a H77, 5% FBS + 40% human plasma, read-out: 1a H77 5% FBS + 40% Human Plasma EC50
[13] = strain 1a H77, 5% FBS, no human plasma, read-out: 1a H77 5% FBS EC50
[14] = strain 1a H77, 5% FBS, read-out: 1a H77 5% FBS EC50
[15] = strain 1b BB7, 5% FBS + 40% human plasma, read-out: 1b BB7 5% FBS + 40% Human Plasma EC50
[16] = strain 1b BB7, 5% FBS, no human plasma, read-out: 1b BB7 5% FBS EC50
[17] = strain 1b BB7, 5% FBS, read-out: 1b BB7 5% FBS EC50

Row | SMILES | EC50 [1] [nM] | EC50 [2] [nM] | IC50 [3] [nM] | IC50 [4] [nM] | C316Y/1a Fold Resistance [5] [fold] | EC50 [6] [nM] | IC50 [7] [nM] | EC50 [8] [nM] | EC50 [9, 11] [nM] | EC50 [9, 12] [nM] | EC50 [9, 13] [nM] | EC50 [9, 14] [nM] | EC50 [10, 15] [nM] | EC50 [10, 16] [nM] | EC50 [10, 17] [nM]
1 | CC[S+]([O-])CCCN(c1cc2oc(-c3ccc(F)cc3)c(C3=NOCCN3)c2cc1C1CC1)S(C)(=O)=O (stereo not drawn) [Example 144, N-[5-cyclopropyl-3-(5,6-dihydro-4H-1,2,4-oxadiazin-3-yl)-2-(4-fluorophenyl)-1-benzofuran-6-yl]-N-[3-(ethylsulfinyl)propyl]methanesulfonamide] | 380 | 419 | 7 | 89 | 13 | 62 | 92 | 380 | 39 | 254 | 39 | 39 | 333 | 37 | 37
2 | [2H]C1([2H])NC(c2c(-c3ccc(F)cc3)oc3cc(N(CCCCS(C)(=O)=O)S(C)(=O)=O)c(C4CC4)cc23)=NO1 [Example 150, N-{5-cyclopropyl-3-[(5,5-^2H2)-4,5-dihydro-1,2,4-oxadiazol-3-yl]-2-(4-fluorophenyl)-1-benzofuran-6-yl}-N-[4-(methylsulfonyl)butyl]methanesulfonamide] | 25 | 30.9 | 4 | 42 | 11 | 7 | 5 | 43 | 5 | 320 | 5 | 5 | 231 | 4 | 4
3 | CC(C)CCN(c1cc2oc(-c3ccc(F)cc3)c(C3=NOCC(=O)N3)c2cc1C1CC1)S(C)(=O)=O [Example 162, N-[5-cyclopropyl-2-(4-fluorophenyl)-3-(5-oxo-5,6-dihydro-4H-1,2,4-oxadiazin-3-yl)-1-benzofuran-6-yl]-N-(3-methylbutyl)methanesulfonamide] | > 1000 | 1000 | 35.7 | 1200 | 34 | 1000 | 711 | 1000 | 248 | 10000 | 248 | 248 | 9710 | 327 | 327
4 | CS(=O)(=O)N(CCCc1nnn[nH]1)c1cc2oc(-c3ccc(F)cc3)c(-c3ncc[nH]3)c2cc1C1CC1 [Example 174, N-[5-cyclopropyl-2-(4-fluorophenyl)-3-(1H-imidazol-2-yl)-1-benzofuran-6-yl]-N-[3-(1H-tetrazol-5-yl)propyl]methanesulfonamide] | > 1000 | 1000 | 3.5 | 40 | 12 | 290 | 18.6 | 1000 | 320 | 4780 | 320 | 320 | 3690 | 192 | 192
5 | CS(=O)(=O)N(CCCc1noc(=O)[nH]1)c1cc2oc(-c3ccc(F)cc3)c(-c3ncc[nH]3)c2cc1C1CC1 [Example 175, N-[5-cyclopropyl-2-(4-fluorophenyl)-3-(1H-imidazol-2-yl)-1-benzofuran-6-yl]-N-[3-(5-oxo-4,5-dihydro-1,2,4-oxadiazol-3-yl)propyl]methanesulfonamide] | 407 | 723 | 6 | 43 | 7 | 62 | 25 | 660 | 79 | 1180 | 79 | 79 | 570 | 62 | 62
6 | CS(=O)(=O)N(CCC/C(N)=N/O)c1cc2oc(-c3ccc(F)cc3)c(-c3ncc[nH]3)c2cc1C1CC1 [Example 176, (1Z)-4-{[5-cyclopropyl-2-(4-fluorophenyl)-3-(1H-imidazol-2-yl)-1-benzofuran-6-yl](methylsulfonyl)amino}-N′-hydroxybutanimidamide] | 159 | 155 | 5 | 134 | 27 | 12 | 33 | 146 | 36.5 | 133 | 36.5 | 36.5 | 80 | 20 | 20
7 | CS(=O)(=O)N(CCCc1noc(=S)[nH]1)c1cc2oc(-c3ccc(F)cc3)c(-c3ncc[nH]3)c2cc1C1CC1 [Example 177, N-[5-cyclopropyl-2-(4-fluorophenyl)-3-(1H-imidazol-2-yl)-1-benzofuran-6-yl]-N-[3-(5-thioxo-4,5-dihydro-1,2,4-oxadiazol-3-yl)propyl]methanesulfonamide] | 401 | 606 | 4 | 38 | 10 | 30 | 36 | 427 | 32 | 520 | 32 | 32 | 461 | 23 | 23
8 | CS(=O)(=O)N(CCCc1nnn[nH]1)c1cc2oc(-c3ccc(F)cc3)c(C3=NOCCN3)c2cc1C1CC1 [Example 180, N-[5-cyclopropyl-3-(5,6-dihydro-4H-1,2,4-oxadiazin-3-yl)-2-(4-fluorophenyl)-1-benzofuran-6-yl]-N-[3-(1H-tetrazol-5-yl)propyl]methanesulfonamide] | > 1000 | 1000 | 6 | 34 | 6 | 1000 | 32 | 1000 | 1000 | 10000 | 1000 | 1000 | 10000 | 1000 | 1000
9 | CS(=O)(=O)N(CCC/C(N)=N/O)c1cc2oc(-c3ccc(F)cc3)c(C3=NOCCN3)c2cc1C1CC1 [Example 181, (1Z)-4-{[5-cyclopropyl-3-(5,6-dihydro-4H-1,2,4-oxadiazin-3-yl)-2-(4-fluorophenyl)-1-benzofuran-6-yl](methylsulfonyl)amino}-N′-hydroxybutanimidamide] | 594 | 548 | 10 | 103 | 10 | 108 | 56 | 785 | 55.7 | 611 | 55.7 | 55.7 | 702 | 46 | 46
10 | CS(=O)(=O)N(CCCc1noc(=O)[nH]1)c1cc2oc(-c3ccc(F)cc3)c(C3=NOCCN3)c2cc1C1CC1 [Example 182, N-[5-cyclopropyl-3-(5,6-dihydro-4H-1,2,4-oxadiazin-3-yl)-2-(4-fluorophenyl)-1-benzofuran-6-yl]-N-[3-(5-oxo-4,5-dihydro-1,2,4-oxadiazol-3-yl)propyl]methanesulfonamide] | > 1000 | 1000 | 7 | 26 | 4 | 661 | 44 | 1000 | 356 | 4230 | 356 | 356 | 5250 | 310 | 310
